Patent US12583858B2 (Genentech, Inc., priority 2015, dated 2026)

Biological target: T1, TDO2 (Homo sapiens, UniProt P48775)
T1 construct: decreased levels of NFK in SW48 cells (high TDO expressing cells)
Assay: TDO2 cell assay (NFK GreenScreen, SW48 cells)
Type: cell-based
Conditions: SW48 cells (high TDO expressing), 200 uM tryptophan, 24 hours; Table 3; read-out: TDO2 Cell Fluor EC50

T1 sequence (P48775 whole entry): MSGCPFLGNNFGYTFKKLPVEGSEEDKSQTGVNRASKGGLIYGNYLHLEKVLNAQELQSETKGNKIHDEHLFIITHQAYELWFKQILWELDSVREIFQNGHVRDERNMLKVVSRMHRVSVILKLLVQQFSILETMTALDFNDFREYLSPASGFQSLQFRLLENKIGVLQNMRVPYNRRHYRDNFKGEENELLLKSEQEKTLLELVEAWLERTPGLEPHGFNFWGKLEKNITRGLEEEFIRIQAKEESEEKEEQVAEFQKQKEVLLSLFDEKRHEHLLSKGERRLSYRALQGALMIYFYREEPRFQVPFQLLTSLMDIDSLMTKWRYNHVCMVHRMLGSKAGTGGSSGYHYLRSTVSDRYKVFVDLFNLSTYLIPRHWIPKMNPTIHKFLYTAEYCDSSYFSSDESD

CC(C)(C)OC(=O)N1CCCC(O)(C2c3ccccc3-c3cncn32)C1 (single isomer, unassigned) [Example 127c]
EC50: 0.76 µM

OC1(C2c3ccccc3-c3cncn32)CCOC1 (single isomer, unassigned) [Example 129a]
EC50: > 25 µM

OC1(C2c3ccccc3-c3cncn32)CCOC1 (single isomer, unassigned) [Example 129b]
EC50: 17 µM

OC1(C2c3ccccc3-c3cncn32)CCOC1 (single isomer, unassigned) [Example 129c]
EC50: 4.5 µM

OC1(C2c3ccccc3-c3cncn32)CCOC1 (single isomer, unassigned) [Example 129d]
EC50: 2.6 µM

Cn1cc2c(n1)CCC(C1c3ccccc3-c3cncn31)C2O (single isomer, unassigned) [Example 130a]
EC50: 1.5 µM

Cn1cc2c(n1)CCC(C1c3ccccc3-c3cncn31)C2O (single isomer, unassigned) [Example 130b]
EC50: 0.65 µM

Cn1cc2c(n1)CCC(C1c3ccccc3-c3cncn31)C2O (single isomer, unassigned) [Example 130c]
EC50: > 25 µM

Cn1cc2c(n1)CCC(C1c3ccccc3-c3cncn31)C2O (single isomer, unassigned) [Example 130e]
EC50: 3.1 µM

Cn1cc2c(n1)CCC(C1c3ccccc3-c3cncn31)C2O (single isomer, unassigned) [Example 130f]
EC50: 1.2 µM

Cn1cc2c(n1)CCC(C1c3ccccc3-c3cncn31)C2O (single isomer, unassigned) [Example 130g]
EC50: 4.5 µM

Cn1cc2c(n1)CCC(C1c3ccccc3-c3cncn31)C2O (single isomer, unassigned) [Example 130h]
EC50: > 25 µM

OC1c2ccnn2CCCC1C1c2ccccc2-c2cncn21 (single isomer, unassigned) [Example 133a]
EC50: > 25 µM

OC1c2ccnn2CCCC1C1c2ccccc2-c2cncn21 (single isomer, unassigned) [Example 133b]
EC50: 0.94 µM

OC1c2ccnn2CCCC1C1c2ccccc2-c2cncn21 (single isomer, unassigned) [Example 133c]
EC50: 6 µM

OC1c2ccnn2CCCC1C1c2ccccc2-c2cncn21 (single isomer, unassigned) [Example 133d]
EC50: > 25 µM

OC1c2ccnn2CCCC1C1c2ccccc2-c2cncn21 (single isomer, unassigned) [Example 133e]
EC50: 0.28 µM

OC1c2ccnn2CCCC1C1c2ccccc2-c2cncn21 (single isomer, unassigned) [Example 133f]
EC50: > 25 µM

OC1c2ccnn2CCCC1C1c2ccccc2-c2cncn21 (single isomer, unassigned) [Example 133g]
EC50: 3 µM

OC1c2ccnn2CCCC1C1c2ccccc2-c2cncn21 (single isomer, unassigned) [Example 133h]
EC50: > 25 µM

CC(C)C(O)C1c2ccc(F)cc2-c2cncn21 (single isomer, unassigned) [Example 135a]
EC50: > 25 µM

CC(C)C(O)C1c2ccc(F)cc2-c2cncn21 (single isomer, unassigned) [Example 135c]
EC50: 3 µM

CC(C)C(O)C1c2ccc(F)cc2-c2cncn21 (single isomer, unassigned) [Example 135d]
EC50: 0.13 µM

OC1c2cccn2CCC1C1c2ccccc2-c2cncn21 (single isomer, unassigned) [Example 136c]
EC50: 6.7 µM

OC1c2cccn2CCC1C1c2ccccc2-c2cncn21 (single isomer, unassigned) [Example 136d]
EC50: 15 µM

OC1c2cccn2CCC1C1c2ccccc2-c2cncn21 (single isomer, unassigned) [Example 136e]
EC50: 0.64 µM

OC1c2cccn2CCC1C1c2ccccc2-c2cncn21 (single isomer, unassigned) [Example 136g]
EC50: 0.2 µM

CCC(O)C1c2ccccc2-c2cncn21 (single isomer, unassigned) [Example 137a]
EC50: > 25 µM

CCC(O)C1c2ccccc2-c2cncn21 (single isomer, unassigned) [Example 137c]
EC50: 0.2 µM

O[C@@H](C1CCOCC1)[C@H]1c2ccccc2-c2cncn21 (single isomer, unassigned) [Example 138b]
EC50: > 25 µM

O[C@@H](C1CCOCC1)[C@@H]1c2ccccc2-c2cncn21 (single isomer, unassigned) [Example 138c]
EC50: > 25 µM

O[C@@H](C1CCOCC1)[C@@H]1c2ccccc2-c2cncn21 (single isomer, unassigned) [Example 138d]
EC50: 10 µM

Cn1cc2c(n1)C(O)C(C1c3ccccc3-c3cncn31)CC2 (single isomer, unassigned) [Example 139-1a]
EC50: 5.3 µM

Cn1cc2c(n1)C(O)C(C1c3ccccc3-c3cncn31)CC2 (single isomer, unassigned) [Example 139-1b]
EC50: > 25 µM

Cn1cc2c(n1)[C@@H](O)[C@@H]([C@@H]1c3ccccc3-c3cncn31)CC2 (single isomer, unassigned) [Example 139-1c]
EC50: > 25 µM

Cn1cc2c(n1)[C@@H](O)[C@@H]([C@@H]1c3ccccc3-c3cncn31)CC2 (single isomer, unassigned) [Example 139-1d]
EC50: 0.7 µM

Cn1cc2c(n1)C(O)C(C1c3ccccc3-c3cncn31)CC2 (single isomer, unassigned) [Example 139-1e]
EC50: > 25 µM

Cn1cc2c(n1)C(O)C(C1c3ccccc3-c3cncn31)CC2 (single isomer, unassigned) [Example 139-1f]
EC50: 0.21 µM

OC1c2cnnn2CCC1C1c2ccccc2-c2cncn21 (single isomer, unassigned) [Example 139a]
EC50: > 25 µM

OC1c2cnnn2CCC1C1c2ccccc2-c2cncn21 (single isomer, unassigned) [Example 139b]
EC50: 1 µM

NC(=O)C1CCC(O)(C2c3ccccc3-c3cncn32)CC1 (single isomer, unassigned) [Example 140a]
EC50: > 25 µM

NC(=O)C1CCC(O)(C2c3ccccc3-c3cncn32)CC1 (single isomer, unassigned) [Example 140b]
EC50: > 25 µM

NC(=O)C1CCC(O)(C2c3ccccc3-c3cncn32)CC1 (single isomer, unassigned) [Example 140c]
EC50: > 25 µM

NC(=O)C1CCC(O)(C2c3ccccc3-c3cncn32)CC1 (single isomer, unassigned) [Example 140d]
EC50: 3.5 µM

OC1(C2c3ccccc3-c3cncn32)CCCc2ccncc21 (single isomer, unassigned) [Example 141a]
EC50: 17 µM

OC1(C2c3ccccc3-c3cncn32)CCCc2ccncc21 (single isomer, unassigned) [Example 141b]
EC50: 3.8 µM

OC1(C2c3ccccc3-c3cncn32)CCCc2ccncc21 (single isomer, unassigned) [Example 141c]
EC50: > 25 µM

OC1(C2c3ccccc3-c3cncn32)CCCc2ccncc21 (single isomer, unassigned) [Example 141d]
EC50: > 25 µM

CS(=O)(=O)c1ccc2c(c1)[C@@H](O)[C@H]([C@H]1c3ccccc3-c3cncn31)CC2 (single isomer, unassigned) [Example 142a]
EC50: 0.037 µM

CS(=O)(=O)c1ccc2c(c1)[C@@H](O)[C@H]([C@H]1c3ccccc3-c3cncn31)CC2 (single isomer, unassigned) [Example 142b]
EC50: 5.9 µM

CC(O)(c1ncc[nH]1)C1c2ccccc2-c2cncn21 (single isomer, unassigned) [Example 143a]
EC50: > 25 µM
